This note sets out measurements from US20220296590A1, “STEREOISOMERS OF THE COMPOUND 3-(BENZO[D][1,3]DIOXOL-5-YL)-7-(1-HYDROXYPROPAN-2-YL)-1-(1H-INDOL-3-YL)-6,7-DIHYDRO-3H-OXAZOL[3,4-A]PYRAZINE-5,8-DIONE AND USE THEREOF AS AN ANTITUMOR AGENT AND PHOSPHODIESTERASE ENZYME INHIBITOR” (BIOLAB SANUS FARMACEUTICA LTDA, priority 2019, published 2022).

Assay [1] deals with T1, PDE5A1 enzyme (Homo sapiens, UniProt O76074).
T1 construct: purchased BPS Bioscience 60350
The experiment in a line: In vitro inhibition of human phosphodiesterase enzyme 5 (BPS Bioscience PDE5A1 assay kit, fluorescence polarization). Type of assay: biochemical. Here is the method:
The evaluation of the compound is studied using BPS Bioscience enzyme assay kit (catalogue 60350). The PDE5A1 Assay kit is designed for identification of PDE5A1 inhibitors using fluorescence polarization. The assay is based on the binding of a fluorescent nucleotide monophosphate generated by PDE5A1 enzyme to the binding agent.
In this methodology only two simple steps on a microtiter plate are required for PDE5A1 reactions. First, the fluorescently labeled cGMP is incubated with PDE5A1 for 1 hour. Second, the binding agent is added to the reaction mixture to produce a change in fluorescent polarization that can then be measured using a fluorescence reader equipped for the measurement of fluorescence polarization.
For the assay the storage reagent FAM-Cyclic-3′, 5′-GMP (20 μM) is diluted with PDE assay buffer to achieve the solution with a […] concentration; the PDE5A1 enzyme is thawed and diluted with the PDE buffer obtaining a PDE5A1 solution at 10 pg/mL.
The assay compounds are diluted with DMSO 100% (v/v) at a concentration of 1000 μM and subsequently diluted in a Sodium chloride 0.9% solution to obtain a curve of concentrations of interest for the assay. The compounds are diluted in concentrations of: 10 nM, 30 nM, 50 nM, 100 nM, 300 nM, 500 nM, 1 μM, 3 μM, 5 μM (DMSO 10% v/v).
The study is comprised of groups: (i) substrate control; (ii) positive control (KIT); (iii) samples in several concentrations; (iv) tadalafil (comparative control). Each parameter (group) is triple labeled.
For the 4 groups there is added, to each microplate well, […] of the FAM-Cyclic-3′ reagent, 5′-GMP (200 μM).
To the substrate control group there is added, to each well, […] of vehicle (DMSO 10% v/v) and […] PDE Buffer.
To the positive control group there is added, to each well, […] of vehicle (DMSO 10% v/v).
To the tadalafil group: there is added […] of the solution in the concentrations of interest.
To the test group there is added […] of the sample solution (test compound)
OBSERVATION: the parameters tested are in triplicate.
To begin the reaction, add […] of the PDE5A1 enzyme (diluted as described above) to the microplate wells designated as Positive Control and Samples (test and tadalafil), and incubate the microplate, for 1 hour, at a temperature of 25° C.
After the incubation period, the reaction is interrupted by the addition, in all the wells, of […] of the binding agent solution and the microplate is incubated for 30 minutes, under light stirring, at room temperature. The reading of the microplate is carried out in Polarized Fluorescence (475-495 nm—excitation and 518-538 nm—emission detection) 500 nanoseconds integration time.

Assay [2] relates to MNK45-human gastric cancer. Put plainly: Antiproliferative effect in tumor cell culture (CYQuant intracellular DNA, 72 hours), MNK45. Format: cell-based. Here is the method:
(§1) For the execution of the assay, the compounds are diluted in DMSO 100% (v/v) at a concentration of 1000 μM and subsequently diluted in a Sodium Chloride solution 0.9% to obtain the storage solutions of interest for use in the assays. The final concentration of interest will be directly diluted in the cell culture medium. For the assay there are used the following tumor cell lineages: PC3-human prostate cancer cells; LNCAP-human prostate cancer cells; DU145-human prostate cancer; MNK45-human gastric cancer and RT4-human bladder cancer cells. The tumor cell lineages are maintained in culture according to standard procedures established by the Cell Bank of Rio de Janeiro (lineage place of origin). For the assay, the tumor cells are seeded in the concentration of 10.000 cells per well (final volume of the reaction of […]), the plate is incubated for 8 hours, for the cells to adhere to the wall of the wells. After this period, the plate is divided in groups: • (a) test group: […] of the samples were added (test compound) in the concentrations of interest; • (b) positive control group: […] of culture medium were added (100% of cell proliferation); • (c) negative control group: 200 mL of culture medium and […] of the vehicle used were added to dilute the compounds (without cells—zero proliferation); • (d) control group: […] were added of the vehicle used to dilute the compounds. This group is important to evaluate whether the vehicle used interferes in the cell proliferation. OBSERVATION: the treatment with the concentrations of samples (test compounds) and of the controls are carried out in triplicate. Incubate the plate for 72 hours in a CO2 kiln at 37° C. After the incubation period, add […]/well of the solution with DNA marker from the CYQuant Kit and incubate the plate, for 60 minutes, in a CO2 incubator at 37° C. The fluorescence intensity is determined using a fluorescence microplate reader with 485 nm excitation and 530 nm emission detection. The results obtained were normalized relative to the positive control group (100% proliferation). For the compounds there are prepared the storage solutions in the concentrations of: 100 nM, 1 μM, 3 μM, 5 μM, 10 μM and 30 μM (DMSO 10% v/v). While the final concentrations in the test are of: 10 nM, 100 nM, 300 nM, 500 nM, 1000 nM and 3000 nM (in DMSO 1% v/v).

Assay [3] has as its system LNCAP-human prostate cancer cells. Put plainly: Antiproliferative effect in tumor cell culture (CYQuant intracellular DNA, 72 hours), LNCAP. Format: cell-based. Conditions: for % Cell Proliferation Inhibition (intracellular DNA) LNCAP (average ± E.P.M.): 72 hours. As for the experimental part: as §1
Assay [4] concerns DU145-human prostate cancer. The experiment in a line: Antiproliferative effect in tumor cell culture (CYQuant intracellular DNA, 72 hours), DU145. Type of assay: cell-based. The settings on record: for % Cell Proliferation Inhibition (intracellular DNA) DU145 (average ± E.P.M.): 72 hours. As for the experimental part: as §1
Assay [5] has as its system PC3-human prostate cancer cells. Put plainly: Antiproliferative effect in tumor cell culture (CYQuant intracellular DNA, 72 hours), PC3. Conditions: for % Cell Proliferation Inhibition (intracellular DNA) PC-3 (average ± E.P.M.): 72 hours. Format: cell-based. Here is the method: as §1
Assay [6] has as its system RT4-human bladder cancer cells. The experiment in a line: Antiproliferative effect in tumor cell culture (CYQuant intracellular DNA, 72 hours), RT4. Type of assay: cell-based. The settings on record: for % Cell Proliferation Inhibition (intracellular DNA) RT4 (average ± E.P.M.): 72 hours. Here is the method: as §1

With `CC(CO)N1CC(=O)N2C(=C(c3c[nH]c4ccccc34)OC2c2ccc3c(c2)OCO3)C1=O` (mixture of isomers) [BL-241, (R)-3-(benzo[d][1,3]dioxol-5-yl)-7-((S)-1-hydroxypropan-2-yl)-1-(1H-indole-3-yl)-6,7-dihydro-3H-oxazole[3,4-a]pyrazine-5,8-dione with (S)-3-(benzo[d][1,3]dioxol-5-yl)-7-((S)-1-hydroxypropan-2-yl)-1-(1H-indole-3-yl)-6,7-dihydro-3H -oxazole[3,4-a]pyrazine-5,8-dione], the “% of Inhibition (PDE5A1)” value in assay [1] (500 nM, 0.5 µM) stood at 57%; in assay [1] (1000 nM, 1 µM), 71%; in assay [1] (3000 nM, 3 µM) it was 88%. Also, the “PDE5 inhibition, result in words” value in assay [1] (over the concentrations tested) is recorded as “capable of inhibiting the PDE5 in a dose-dependent manner”. Besides, the “% Cell Proliferation Inhibition (intracellular DNA) MNK45 (average ± E.P.M.)” value in assay [2] (100 nM, 0.1 µM) was determined as 25 ± 1%; in assay [2] (300 nM, 0.3 µM), 10 ± 2%; in assay [2] (500 nM, 0.5 µM), 2 ± 1%; in assay [2] (1000 nM, 1 µM), 4 ± 1%; in assay [2] (3000 nM, 3 µM), 20 ± 3%. Further, the “% Cell Proliferation Inhibition (intracellular DNA) LNCAP (average ± E.P.M.)” value in assay [3] (10 nM, 0.01 µM) worked out at 25 ± 2%; in assay [3] (100 nM, 0.1 µM), 37 ± 3%; in assay [3] (300 nM, 0.3 µM) it was 38 ± 4%; in assay [3] (500 nM, 0.5 µM), 44 ± 2%; in assay [3] (1000 nM, 1 µM), 34 ± 6%. Also, the “antiproliferative effect, result in words” value in assay [3] (LNCAP prostate cancer tumor lineage), in assay [4] (DU145 prostate cancer tumor lineage), in assay [5] (PC3 prostate cancer tumor lineage) and in assay [6] (RT4 bladder cancer tumor lineage) was “antiproliferative effect” each time. The “% Cell Proliferation Inhibition (intracellular DNA) DU145 (average ± E.P.M.)” value in assay [4] (100 nM, 0.1 µM) is recorded as 33 ± 8%; in assay [4] (300 nM, 0.3 µM), 17 ± 3%; in assay [4] (500 nM, 0.5 µM) it was 18 ± 2%; in assay [4] (1000 nM, 1 µM), 22 ± 2%; in assay [4] (3000 nM, 3 µM) it was 43 ± 5%. Besides, the “% Cell Proliferation Inhibition (intracellular DNA) PC-3 (average ± E.P.M.)” value in assay [5] (10 nM, 0.01 µM) stood at 27 ± 11%; in assay [5] (100 nM, 0.1 µM) it was 36 ± 7%; in assay [5] (300 nM, 0.3 µM) it was 42 ± 6%; in assay [5] (500 nM, 0.5 µM), 46 ± 1%; in assay [5] (1000 nM, 1 µM), 33 ± 3%. Moreover, the “% Cell Proliferation Inhibition (intracellular DNA) RT4 (average ± E.P.M.)” value in assay [6] (100 nM, 0.1 µM) came to 28 ± 6%; in assay [6] (300 nM, 0.3 µM), 5 ± 2%; in assay [6] (500 nM, 0.5 µM) it was 4 ± 2%; in assay [6] (1000 nM, 1 µM) it was 11 ± 8%; in assay [6] (3000 nM, 3 µM), 57 ± 4%.

On to `CN1CC(=O)N2[C@H](c3ccc4c(c3)OCO4)c3[nH]c4ccccc4c3C[C@@H]2C1=O` [Tadalafyl, tadalafil, reference compound], for which, in assay [1] (read-out: % of Inhibition (PDE5A1)), the inhibition at 5 µM was 96 ± 2%.
